From ChEMBL document CHEMBL1201862, “PubChem BioAssay data set” (2004)
Active and inactive are the calls of the source.

How the values were obtained:
[1] = biological target: Glycogen synthase kinase-3 alpha (Homo sapiens, UniProt P49840); format: functional;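 further: GSK3A result taken from a broad kinome-wide kinase panel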
[2] = inhibitors of intracellular T. cruzi replication, confirmation, NIH3T3 host cells, beta-gal luminescence (AID 2044); format: functional, cell-based;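 further: intracellular parasites grown in NIH/3T3 mouse fibroblasts as host cells; luminescent beta-galactosidase reporter signal from transgenic T. cruzi replicating inside host cells; inhibitors lower the luminescence signal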
[3] = NIH-3T3 fibroblast cytotoxicity, dose response, cytotoxicity control for antifungal single agent project, cell-based, Alamar Blue, dry powder (AID 602188); format: functional
[4] = biological target: Ribosomal protein S6 kinase alpha-3 (Homo sapiens, UniProt P51812); format: functional;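 further: measured within a kinome-wide profiling panel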
Ribosomal protein S6 kinase alpha-3, sequence (P51812 whole entry): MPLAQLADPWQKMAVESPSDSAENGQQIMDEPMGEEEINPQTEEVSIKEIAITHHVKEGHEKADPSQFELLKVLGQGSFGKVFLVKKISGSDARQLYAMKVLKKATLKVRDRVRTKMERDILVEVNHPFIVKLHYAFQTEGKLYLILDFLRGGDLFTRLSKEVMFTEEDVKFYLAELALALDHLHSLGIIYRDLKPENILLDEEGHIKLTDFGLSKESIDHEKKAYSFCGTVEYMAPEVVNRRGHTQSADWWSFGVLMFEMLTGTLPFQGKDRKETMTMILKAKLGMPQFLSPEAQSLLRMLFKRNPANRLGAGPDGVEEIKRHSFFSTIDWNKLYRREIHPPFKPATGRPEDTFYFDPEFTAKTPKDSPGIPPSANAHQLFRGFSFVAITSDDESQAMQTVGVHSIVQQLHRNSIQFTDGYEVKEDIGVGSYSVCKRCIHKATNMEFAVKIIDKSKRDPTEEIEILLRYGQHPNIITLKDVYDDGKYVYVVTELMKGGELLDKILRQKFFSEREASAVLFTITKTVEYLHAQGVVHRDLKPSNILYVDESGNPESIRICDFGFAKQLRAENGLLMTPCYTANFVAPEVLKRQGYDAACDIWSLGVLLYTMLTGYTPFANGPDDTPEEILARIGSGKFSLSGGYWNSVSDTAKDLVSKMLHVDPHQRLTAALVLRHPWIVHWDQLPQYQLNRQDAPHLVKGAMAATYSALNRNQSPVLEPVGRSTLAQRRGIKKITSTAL

[5] = biological target: Sphingosine 1-phosphate receptor 4 (Homo sapiens, UniProt O95977); test: Fluorescence dose response cell-based high throughput screening assay for antagonists of the Sphingosine 1-Phosphate Receptor 4 (S1P4). [Related pubchem assays: 1524 (Confirmation in triplicates.), 1510 (Primary screen.)]; format: functional
Sphingosine 1-phosphate receptor 4, sequence (O95977 whole entry): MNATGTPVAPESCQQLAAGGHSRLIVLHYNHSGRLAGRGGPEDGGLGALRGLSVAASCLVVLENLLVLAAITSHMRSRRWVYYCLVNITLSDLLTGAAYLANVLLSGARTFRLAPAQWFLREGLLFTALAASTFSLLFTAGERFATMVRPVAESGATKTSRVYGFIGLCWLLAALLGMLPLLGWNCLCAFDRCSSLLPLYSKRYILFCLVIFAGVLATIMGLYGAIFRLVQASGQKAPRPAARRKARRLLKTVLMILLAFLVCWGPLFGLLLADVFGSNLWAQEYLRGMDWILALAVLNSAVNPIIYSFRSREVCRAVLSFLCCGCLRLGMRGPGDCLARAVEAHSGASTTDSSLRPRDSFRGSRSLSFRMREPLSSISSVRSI

[6] = biological target: T1, Orexin/Hypocretin receptor type 1 (Homo sapiens, UniProt O43613); test: Fluorescence-based cell-based high throughput dose response assay for antagonists of the orexin 1 receptor (OX1R; HCRTR1). [Related pubchem assays (depositor defined):AID434989, AID435008, AID463079, AID485270, AID492963, AID492964, AID492965, AID493232, AID504717, AID504718]; format: functional
T1 sequence (O43613 whole entry): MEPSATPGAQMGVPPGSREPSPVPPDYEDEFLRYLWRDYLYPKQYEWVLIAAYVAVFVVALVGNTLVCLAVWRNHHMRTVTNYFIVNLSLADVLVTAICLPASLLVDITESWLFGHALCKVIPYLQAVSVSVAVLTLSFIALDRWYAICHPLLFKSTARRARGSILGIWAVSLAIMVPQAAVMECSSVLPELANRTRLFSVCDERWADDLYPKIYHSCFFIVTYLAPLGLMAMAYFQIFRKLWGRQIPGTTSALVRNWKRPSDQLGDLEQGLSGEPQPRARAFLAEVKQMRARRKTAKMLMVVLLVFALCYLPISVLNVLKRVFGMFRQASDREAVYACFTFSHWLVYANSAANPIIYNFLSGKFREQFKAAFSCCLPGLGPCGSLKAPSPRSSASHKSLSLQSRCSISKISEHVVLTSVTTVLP

Beta Lactamase = Beta Lactamase (Pseudomonas aeruginosa, UniProt Q932Y6); test: beta-lactamase reporter inhibitor potency, dose response, artefact control for TLR9-MyD88 binding inhibitor project, BLA reporter cells, FRET fluorescence (AID 588341); format: cell-based;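 further: cell based assay in CHO-K1 cells stably expressing beta-lactamase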
Beta Lactamase, sequence (Q932Y6 whole entry): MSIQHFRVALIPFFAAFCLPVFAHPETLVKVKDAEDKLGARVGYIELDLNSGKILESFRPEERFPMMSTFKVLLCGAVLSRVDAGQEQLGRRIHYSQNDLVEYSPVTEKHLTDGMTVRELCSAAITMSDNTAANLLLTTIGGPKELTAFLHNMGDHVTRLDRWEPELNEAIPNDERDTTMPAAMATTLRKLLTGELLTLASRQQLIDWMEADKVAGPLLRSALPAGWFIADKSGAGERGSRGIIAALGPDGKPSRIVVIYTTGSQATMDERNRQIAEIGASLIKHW

Orexin receptor type 2 = Orexin receptor type 2 (Homo sapiens, UniProt O43614); test: Counterscreen assay for antagonists of the orexin 1 receptor (OX1R; HCRTR1): Homogeneous Time Resolved Fluorescence (HTRF)-based cell-based dose response assay for antagonists of the orexin 2 receptor (OX2R; HCRTR2), run by assay provider.; format: functional
Orexin receptor type 2, sequence (O43614 whole entry, the tested form may be a part): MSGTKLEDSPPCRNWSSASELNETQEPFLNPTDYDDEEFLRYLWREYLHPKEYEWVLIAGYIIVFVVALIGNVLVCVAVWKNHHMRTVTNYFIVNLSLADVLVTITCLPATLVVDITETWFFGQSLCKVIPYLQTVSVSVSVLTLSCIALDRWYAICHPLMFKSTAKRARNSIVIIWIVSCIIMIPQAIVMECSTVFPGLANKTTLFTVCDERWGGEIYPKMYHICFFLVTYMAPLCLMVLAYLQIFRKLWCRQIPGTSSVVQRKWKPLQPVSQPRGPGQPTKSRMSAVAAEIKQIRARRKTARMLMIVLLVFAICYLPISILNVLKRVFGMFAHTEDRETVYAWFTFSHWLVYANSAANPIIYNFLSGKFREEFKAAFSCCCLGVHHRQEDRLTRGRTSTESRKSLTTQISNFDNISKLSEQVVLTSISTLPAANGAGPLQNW

[7] = Fluorescence-based cell-based high throughput dose response assay for inhibitors of the interaction of nucleotide-binding oligomerization domain containing 2 (NOD2) and the receptor-interacting serine-threonine kinase 2 (RIPK2).; format: functional; conditions: Homo sapiens
[8] = biological target: T2, Ubiquitin-conjugating enzyme E2 N (Homo sapiens, UniProt P61088); format: functional;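 further: Dose-response confirmation in a TR-FRET assay detecting UBC13-driven polyubiquitin chain formation, inhibition measured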
T2 sequence (P61088 whole entry): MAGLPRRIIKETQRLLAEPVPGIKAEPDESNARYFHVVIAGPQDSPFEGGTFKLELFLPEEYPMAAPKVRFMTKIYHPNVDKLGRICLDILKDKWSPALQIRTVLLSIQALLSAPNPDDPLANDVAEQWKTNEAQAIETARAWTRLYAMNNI

Troponin, cardiac muscle = Troponin, cardiac muscle (Homo sapiens, UniProt P19429+P45379+P63316); test: inhibitors of cardiac thin filament calcium sensitivity, dose response, biochemical, fluorescence, cardiac regulated thin filaments, triplicate IC50 (AID 504742); format: protein-complex assay
[9] = biological target: Intestinal-type alkaline phosphatase (Mus musculus, UniProt P24822); test: PubChem AID 488785; format: functional
Intestinal-type alkaline phosphatase, sequence (P24822 whole entry): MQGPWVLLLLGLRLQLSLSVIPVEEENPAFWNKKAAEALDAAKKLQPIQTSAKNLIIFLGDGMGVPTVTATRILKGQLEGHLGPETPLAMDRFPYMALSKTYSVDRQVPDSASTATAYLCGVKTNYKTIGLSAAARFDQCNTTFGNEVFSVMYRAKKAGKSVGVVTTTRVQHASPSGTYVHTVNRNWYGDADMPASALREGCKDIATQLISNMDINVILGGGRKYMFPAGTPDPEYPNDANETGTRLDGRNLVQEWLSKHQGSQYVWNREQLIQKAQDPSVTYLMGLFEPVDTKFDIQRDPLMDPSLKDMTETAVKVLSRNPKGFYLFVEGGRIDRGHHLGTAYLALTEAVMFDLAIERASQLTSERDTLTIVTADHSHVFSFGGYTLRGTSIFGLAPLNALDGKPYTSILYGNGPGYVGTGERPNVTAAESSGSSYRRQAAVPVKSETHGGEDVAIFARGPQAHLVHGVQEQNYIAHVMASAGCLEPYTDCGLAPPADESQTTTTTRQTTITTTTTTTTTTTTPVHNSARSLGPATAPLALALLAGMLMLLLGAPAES

[10] = biological target: Apoptotic protease-activating factor 1 (Homo sapiens, UniProt O14727); format: functional
Apoptotic protease-activating factor 1, sequence (O14727 whole entry): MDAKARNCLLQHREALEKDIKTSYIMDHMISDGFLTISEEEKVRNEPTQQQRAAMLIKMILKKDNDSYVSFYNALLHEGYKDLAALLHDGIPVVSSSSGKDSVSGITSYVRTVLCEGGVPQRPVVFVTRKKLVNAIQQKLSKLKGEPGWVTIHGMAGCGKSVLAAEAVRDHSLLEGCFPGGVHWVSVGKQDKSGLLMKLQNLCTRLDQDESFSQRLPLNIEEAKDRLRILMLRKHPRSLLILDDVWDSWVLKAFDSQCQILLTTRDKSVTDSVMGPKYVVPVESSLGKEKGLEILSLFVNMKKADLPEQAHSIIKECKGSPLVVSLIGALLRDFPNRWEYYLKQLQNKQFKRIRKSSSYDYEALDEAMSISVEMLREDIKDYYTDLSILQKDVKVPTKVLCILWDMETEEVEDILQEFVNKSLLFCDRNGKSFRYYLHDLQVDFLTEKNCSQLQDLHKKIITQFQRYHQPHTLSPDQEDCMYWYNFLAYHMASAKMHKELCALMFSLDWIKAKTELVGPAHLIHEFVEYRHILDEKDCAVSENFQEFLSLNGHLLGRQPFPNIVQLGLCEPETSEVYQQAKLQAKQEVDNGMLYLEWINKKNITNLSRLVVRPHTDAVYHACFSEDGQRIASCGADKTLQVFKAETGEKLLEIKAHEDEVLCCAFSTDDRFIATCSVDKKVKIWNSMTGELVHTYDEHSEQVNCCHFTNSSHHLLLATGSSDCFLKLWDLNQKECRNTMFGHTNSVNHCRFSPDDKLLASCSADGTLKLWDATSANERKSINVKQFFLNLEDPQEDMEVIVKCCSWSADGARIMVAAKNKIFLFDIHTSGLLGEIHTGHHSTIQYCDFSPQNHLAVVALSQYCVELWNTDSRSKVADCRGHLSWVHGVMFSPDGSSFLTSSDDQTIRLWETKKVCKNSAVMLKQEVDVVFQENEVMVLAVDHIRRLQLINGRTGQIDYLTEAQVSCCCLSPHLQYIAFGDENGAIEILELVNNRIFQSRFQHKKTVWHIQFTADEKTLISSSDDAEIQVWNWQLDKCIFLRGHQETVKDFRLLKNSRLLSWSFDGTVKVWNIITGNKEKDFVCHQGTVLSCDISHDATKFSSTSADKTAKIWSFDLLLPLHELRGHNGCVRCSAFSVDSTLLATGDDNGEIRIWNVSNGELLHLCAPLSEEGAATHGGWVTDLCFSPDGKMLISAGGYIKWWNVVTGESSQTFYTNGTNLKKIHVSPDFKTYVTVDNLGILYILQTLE

[11] = biological target: T3, 1-phosphatidylinositol 4,5-bisphosphate phosphodiesterase gamma-1 (Homo sapiens, UniProt P19174); test: Counterscreen for inhibitors of phospholipase C isozymes (PLC-B3): Fluorescence-based biochemical high throughput dose response assay to identify inhibitors of phospholipase C isozymes (PLC-gamma1).
T3 sequence (P19174 whole entry): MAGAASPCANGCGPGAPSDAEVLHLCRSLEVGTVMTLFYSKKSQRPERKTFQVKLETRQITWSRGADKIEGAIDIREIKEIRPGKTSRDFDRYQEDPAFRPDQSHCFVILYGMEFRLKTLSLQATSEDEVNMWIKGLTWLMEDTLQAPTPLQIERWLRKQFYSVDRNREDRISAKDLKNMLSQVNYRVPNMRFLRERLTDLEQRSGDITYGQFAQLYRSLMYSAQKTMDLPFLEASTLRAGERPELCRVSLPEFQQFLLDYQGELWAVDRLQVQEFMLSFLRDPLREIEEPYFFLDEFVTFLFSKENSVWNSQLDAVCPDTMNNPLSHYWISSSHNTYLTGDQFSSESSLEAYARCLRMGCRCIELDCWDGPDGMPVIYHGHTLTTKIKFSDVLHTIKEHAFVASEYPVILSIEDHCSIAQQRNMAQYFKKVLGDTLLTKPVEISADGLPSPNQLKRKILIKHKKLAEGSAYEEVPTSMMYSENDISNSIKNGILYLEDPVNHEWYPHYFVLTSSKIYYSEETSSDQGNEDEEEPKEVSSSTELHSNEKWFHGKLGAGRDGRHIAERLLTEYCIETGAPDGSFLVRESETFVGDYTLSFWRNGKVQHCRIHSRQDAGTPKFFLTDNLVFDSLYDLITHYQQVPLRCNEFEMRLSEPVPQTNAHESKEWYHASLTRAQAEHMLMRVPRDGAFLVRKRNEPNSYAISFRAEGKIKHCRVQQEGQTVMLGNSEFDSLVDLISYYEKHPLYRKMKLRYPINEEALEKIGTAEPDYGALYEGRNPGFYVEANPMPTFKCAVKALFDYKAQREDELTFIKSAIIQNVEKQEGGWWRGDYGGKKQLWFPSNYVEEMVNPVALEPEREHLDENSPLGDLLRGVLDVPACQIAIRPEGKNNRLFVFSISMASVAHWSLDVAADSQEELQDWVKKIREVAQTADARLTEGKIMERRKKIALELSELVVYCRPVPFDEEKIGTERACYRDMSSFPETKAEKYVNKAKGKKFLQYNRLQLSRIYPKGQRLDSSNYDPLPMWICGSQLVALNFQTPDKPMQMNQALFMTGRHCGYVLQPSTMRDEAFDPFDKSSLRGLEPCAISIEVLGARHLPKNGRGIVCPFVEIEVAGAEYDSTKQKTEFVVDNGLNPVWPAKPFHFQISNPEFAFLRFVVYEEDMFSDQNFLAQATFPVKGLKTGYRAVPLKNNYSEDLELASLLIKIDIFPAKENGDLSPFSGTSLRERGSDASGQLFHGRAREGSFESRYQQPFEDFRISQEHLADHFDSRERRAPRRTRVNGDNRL

Glycogen synthase kinase-3 alpha, sequence (P49840 whole entry): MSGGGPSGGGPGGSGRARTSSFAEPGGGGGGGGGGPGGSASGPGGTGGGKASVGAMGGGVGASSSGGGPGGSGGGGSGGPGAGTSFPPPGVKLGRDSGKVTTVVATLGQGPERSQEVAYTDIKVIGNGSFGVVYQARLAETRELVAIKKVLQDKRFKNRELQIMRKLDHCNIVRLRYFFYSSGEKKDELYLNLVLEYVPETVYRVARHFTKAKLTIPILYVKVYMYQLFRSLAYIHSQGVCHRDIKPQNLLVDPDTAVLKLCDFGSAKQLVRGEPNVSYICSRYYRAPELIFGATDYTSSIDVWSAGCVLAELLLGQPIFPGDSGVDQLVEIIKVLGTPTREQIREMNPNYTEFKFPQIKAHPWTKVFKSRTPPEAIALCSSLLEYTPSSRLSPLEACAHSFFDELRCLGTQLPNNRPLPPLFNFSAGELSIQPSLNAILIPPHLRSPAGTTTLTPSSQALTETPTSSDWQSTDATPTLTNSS

With `Cc1ccc(-c2cc(-c3cc(Br)ccc3O)[nH]c(=O)c2C#N)s1` the Ki [1] was 1.58 µM (active).
In the case of `CCCC(=O)NC(c1cccs1)c1cc(Cl)c2cccnc2c1O` (centres undefined), the EC50 [2] is reported as 1.06 µM (active) and the AC50 [3] is reported as 1.06 µM (active).
With `O=C(Nc1cccc(C2Nc3ccc4ccccc4c3C3C=CCC32)c1)c1ccc(F)cc1` (centres undefined) the Ki [4] was > 3.98 µM (inactive).
With `Cc1ccc(C(=O)OCn2ncc(Cl)c(Cl)c2=O)cc1` the IC50 [5] was 1.27 µM (active), the IC50 [6] was 6.12 µM (active) and the IC50 (Beta Lactamase) was 48.7 µM (inactive). The IC50 (Orexin receptor type 2) was > 50 µM (inactive) and the IC50 [7] was 0.889 µM (active).
With `O=C(O)CC(C(=O)O)N1C(=O)/C(=C/C=C/c2ccco2)SC1=S` (centres undefined) the IC50 [8] was > 20 µM (inactive), the IC50 (Troponin, cardiac muscle) was > 71.5 µM (inactive) and the IC50 [9] was 30.4 µM (active). For the same compound, the IC50 [10] was 36.6 µM (active) and the IC50 [11] was > 1.51 µM (active).
